From ChEMBL document CHEMBL3217728, “Searching for innovative quinolone-like scaffolds: synthesis and biological evaluation of 2,1-benzothiazine 2,2-dioxide derivatives” (2012)
Activity calls are given as the source filed them. No cut-off for these calls is given here.

Assays:
Staphylococcus aureus [1] = experiment: Antimicrobial activity against norA-overexpressing Staphylococcus aureus SA-K2378; format: functional
Staphylococcus aureus [2] = experiment: Potentiation of ciprofloxacin-induced antibacterial effect against norA-deficient Staphylococcus aureus SA-K1902 at 0.78 to 100 ug/ml by isobologram based checkerboard assay; format: functional, organism-based
Staphylococcus aureus [3] = experiment: Antimicrobial activity against norA-deficient Staphylococcus aureus SA-K1902; format: functional
[4] = target: T1, Quinolone resistance protein NorA (Staphylococcus aureus) (UniProt P0A0J7); experiment: Inhibition of NorA efflux pump in norA-overexpressing Staphylococcus aureus SA-K2378 assessed as reduction in ciprofloxacin MIC at 0.78 to 100 ug/ml by isobologram based checkerboard assay
T1 sequence (whole entry): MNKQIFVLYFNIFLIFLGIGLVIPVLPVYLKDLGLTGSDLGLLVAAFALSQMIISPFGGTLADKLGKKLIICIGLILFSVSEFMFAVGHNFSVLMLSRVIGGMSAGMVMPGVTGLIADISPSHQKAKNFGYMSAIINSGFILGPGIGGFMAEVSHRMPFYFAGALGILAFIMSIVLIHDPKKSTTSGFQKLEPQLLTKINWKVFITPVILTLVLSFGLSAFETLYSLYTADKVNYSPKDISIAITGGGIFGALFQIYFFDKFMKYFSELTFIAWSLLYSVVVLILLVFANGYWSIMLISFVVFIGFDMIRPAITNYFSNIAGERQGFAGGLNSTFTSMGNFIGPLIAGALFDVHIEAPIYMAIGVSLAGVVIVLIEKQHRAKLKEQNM

Staphylococcus aureus [5] = experiment: Potentiation of ciprofloxacin-induced antibacterial effect against wild type Staphylococcus aureus ATCC 25923 at 0.78 to 100 ug/ml by isobologram based checkerboard assay; format: functional, organism-based
Staphylococcus aureus [6] = experiment: Antimicrobial activity against wild type Staphylococcus aureus ATCC 25923; format: functional
[7] = Inhibition of DNA gyrase (unknown origin) by DNA super coiling assay
Klebsiella pneumoniae = experiment: Antimicrobial activity against Klebsiella pneumoniae ATCC 13833; format: functional
Enterococcus faecium [8] = experiment: Antibacterial activity against Enterococcus faecium ATCC 19433; format: functional
Enterococcus faecalis = experiment: Antibacterial activity against vancomycin-resistant Enterococcus faecalis 26A36; format: functional
[9] = system: Staphylococcus epidermidis; experiment: Antibacterial activity against Staphylococcus epidermidis ATCC 14990; format: functional
[10] = target: T1, Quinolone resistance protein NorA (Staphylococcus aureus); experiment: Inhibition of NorA efflux pump in norA-overexpressing Staphylococcus aureus SA-K2378 assessed as reduction in ciprofloxacin MIC at 12.5 ug/ml by isobologram based checkerboard assay
Staphylococcus aureus [11] = experiment: Antimicrobial activity against methicillin-sensitive Staphylococcus aureus 21A; format: functional
Staphylococcus aureus [12] = experiment: Antimicrobial activity against ciprofloxacin, methicillin-resistant Staphylococcus aureus 25A; format: functional
Proteus mirabilis = experiment: Antimicrobial activity against Proteus mirabilis CCUG 26767; format: functional
Escherichia coli = experiment: Antimicrobial activity against Escherichia coli ATCC 25922; format: functional
Enterococcus faecium [13] = experiment: Antibacterial activity against ciprofloxacin, vancomycin-resistant Enterococcus faecium 26A23; format: functional
Staphylococcus aureus [14] = experiment: Antimicrobial activity against Staphylococcus aureus ATCC 25923; format: functional
Pseudomonas aeruginosa = experiment: Antimicrobial activity against Pseudomonas aeruginosa ATCC 27853; format: functional
[15] = target: T1, Quinolone resistance protein NorA (Staphylococcus aureus); experiment: Inhibition of NorA efflux pump in Staphylococcus aureus SA-1199B assessed as inhibition of EtBr efflux at 50 uM
[16] = target: T1, Quinolone resistance protein NorA (Staphylococcus aureus); experiment: Inhibition of NorA efflux pump in norA-overexpressing Staphylococcus aureus SA-K2378 assessed as reduction in ciprofloxacin MIC at 50 ug/ml by isobologram based checkerboard assay

Compound	MIC (Staphylococcus aureus [1])	Activity (Staphylococcus aureus [2])	MIC (Staphylococcus aureus [3])	inhibition [4]	Activity (Staphylococcus aureus [5])	MIC (Staphylococcus aureus [6])	inhibition [7]	MIC (Klebsiella pneumoniae)	MIC (Enterococcus faecium [8])	MIC (Enterococcus faecalis)	MIC [9]	MIC (Staphylococcus aureus [11])	MIC (Staphylococcus aureus [12])	MIC (Proteus mirabilis)	MIC (Escherichia coli)	MIC (Enterococcus faecium [13])	MIC (Staphylococcus aureus [14])	MIC (Pseudomonas aeruginosa)	inhibition [15]	further results
Fc1ccc([C@@H]2CCNC[C@H]2COc2ccc3c(c2)OCO3)cc1 [PAROXETINE]	> 100 µg/mL	inactive	> 100 µg/mL	Active	inactive	> 100 µg/mL														
CC1C(=O)c2cc(N)c(N3CCN(C)CC3)cc2N(C2CC2)S1(=O)=O (stereo unspecified)	> 100 µg/mL	inactive	> 100 µg/mL	Dose-dependent effect	inactive	> 100 µg/mL	inactive	> 128 µg/mL	> 128 µg/mL	> 128 µg/mL	> 128 µg/mL	> 128 µg/mL	> 128 µg/mL	> 128 µg/mL	> 128 µg/mL	> 128 µg/mL	> 128 µg/mL	> 128 µg/mL	27%	fold change (FC) [10]: 4
CN1CCN(c2cc3c(cc2N)C(=O)CS(=O)(=O)N3C2CC2)CC1							inactive	> 128 µg/mL	> 128 µg/mL	> 128 µg/mL	> 128 µg/mL	> 128 µg/mL	> 128 µg/mL	> 128 µg/mL	> 128 µg/mL	> 128 µg/mL	> 128 µg/mL	> 128 µg/mL	7%	
CCOC(=O)C1=C(O)c2cc(N)c(N3CCN(C)CC3)cc2N(C2CC2)S1(=O)=O							inactive	> 128 µg/mL	> 128 µg/mL	> 128 µg/mL	> 128 µg/mL	> 128 µg/mL	> 128 µg/mL	> 128 µg/mL	> 128 µg/mL	> 128 µg/mL	> 128 µg/mL	> 128 µg/mL	0%	
CCOC(=O)C1(C)C(=O)c2cc(N)c(N3CCN(C)CC3)cc2N(C2CC2)S1(=O)=O (stereo unspecified)	> 100 µg/mL	inactive	> 100 µg/mL	Dose-dependent effect	inactive	> 100 µg/mL	inactive	> 128 µg/mL	> 128 µg/mL	> 128 µg/mL	> 128 µg/mL	> 128 µg/mL	> 128 µg/mL	> 128 µg/mL	> 128 µg/mL	> 128 µg/mL	> 128 µg/mL	> 128 µg/mL	25%	fold change (FC) [16]: 4
COC(=O)[C@H]1[C@H]2C[C@@H]3c4[nH]c5cc(OC)ccc5c4CCN3C[C@H]2C[C@@H](OC(=O)c2cc(OC)c(OC)c(OC)c2)[C@@H]1OC [RESERPINE]	> 100 µg/mL	inactive	> 100 µg/mL	Active	inactive	> 100 µg/mL														
CNC(=O)C1=C(O)c2cc(N)c(N3CCN(C)CC3)cc2N(C2CC2)S1(=O)=O							inactive	> 128 µg/mL	> 128 µg/mL	> 128 µg/mL	> 128 µg/mL	> 128 µg/mL	> 128 µg/mL	> 128 µg/mL	> 128 µg/mL	> 128 µg/mL	> 128 µg/mL	> 128 µg/mL	2%	
